Assay results from ChEMBL document CHEMBL1201862, “PubChem BioAssay data set” (2004).
Activity calls are given as the source filed them.

Tests used:
cells [1] = type: functional, cell-based; settings: HEK-CNG
Galanin receptor type 3 = molecular target: T1, Galanin receptor type 3 (Homo sapiens, UniProt O60755); assay: Fluorescence-based cell-based primary high throughput dose response assay to identify antagonists of the Galanin Receptor 3 (GalR3).; type: functional
T1 sequence (O60755 whole entry): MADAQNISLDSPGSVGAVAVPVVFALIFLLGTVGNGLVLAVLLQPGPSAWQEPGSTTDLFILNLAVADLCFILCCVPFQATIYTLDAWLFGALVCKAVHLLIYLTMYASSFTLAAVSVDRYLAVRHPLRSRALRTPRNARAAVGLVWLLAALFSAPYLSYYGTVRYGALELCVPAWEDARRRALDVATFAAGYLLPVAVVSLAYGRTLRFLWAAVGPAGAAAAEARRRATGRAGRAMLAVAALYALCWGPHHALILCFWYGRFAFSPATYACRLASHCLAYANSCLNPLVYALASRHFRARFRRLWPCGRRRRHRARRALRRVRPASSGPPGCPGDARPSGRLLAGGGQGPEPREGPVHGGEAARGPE

cells [2] = type: functional
[3] = blockade of melanocortin 4 receptor signaling – cell-based, plate reader, cherry pick, counter-screen for LGR2 antagonist project, dose response (AID 743444); type: functional;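 further: transfected HEK 293 cells stimulated with alpha-MSH peptide; potency of inhibitors of the alpha-MSH evoked signal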
[4] = viability loss in HEK293 cells – cell-based, plate reader, cherry-picked samples, cytotoxicity control, dose response (AID 743446); type: functional
[5] = blockers of bursicon-stimulated LGR2 cAMP reporter – cell-based, HEK293, CRE-luciferase reporter, cherry pick, set 2, dose response (AID 743343); type: functional;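 further: transfected cells were stimulated with diluted bursicon conditioned medium after compound addition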
[6] = A549 cell cytotoxicity, dose response, cytotoxicity control, plate reader, cherry-pick, antagonist series (AID 743412); type: functional, cell-based
[7] = toxicity toward HepG2 liver cells – cell-based, plate reader, cherry-pick, antagonist series, cytotoxicity control, dose response (AID 743416); type: functional
[8] = molecular target: T2, Oxysterols receptor LXR-beta (Homo sapiens, UniProt P55055); type: functional, cell-based;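 further: Cell-based luminescence dose-response assay of agonist activity at LXR, run as a confirmatory counterscreen to a daf-12 agonist screen; HEK293 cells with Gal4-LXR fusion and GAL4-driven luciferase reporter; agonist potency from rising luciferase signal of a Gal4-LXR reporter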
T2 sequence (P55055 whole entry): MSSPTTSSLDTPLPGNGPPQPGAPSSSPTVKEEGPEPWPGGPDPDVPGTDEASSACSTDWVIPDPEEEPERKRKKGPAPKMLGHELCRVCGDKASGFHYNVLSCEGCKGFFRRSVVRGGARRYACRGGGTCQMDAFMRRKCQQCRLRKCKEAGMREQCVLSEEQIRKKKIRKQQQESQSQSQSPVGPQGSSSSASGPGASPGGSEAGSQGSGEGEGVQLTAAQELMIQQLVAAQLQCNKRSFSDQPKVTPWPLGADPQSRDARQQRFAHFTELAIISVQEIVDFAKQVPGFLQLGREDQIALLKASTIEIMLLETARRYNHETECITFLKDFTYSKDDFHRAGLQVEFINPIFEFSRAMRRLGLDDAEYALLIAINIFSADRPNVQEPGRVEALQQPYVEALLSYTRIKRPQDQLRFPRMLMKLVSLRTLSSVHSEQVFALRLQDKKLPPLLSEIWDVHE

[9] = Luminescence-based cell-based high throughput dose response assay to identify activators of the DAF-12 from the parasite S. stercoralis (ssDAF-12).; type: functional
cells [10] = assay: cells
[11] = reduced cellular PGC1a acetyl-lysine signal – cell-based, cherry-picked samples, dose response (AID 720514); type: functional;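 further: potency may reflect raised or lowered acetylation signal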
[12] = rise of 2N DNA cells, HeLa – IC50, dose response (AID 1117349); type: functional, cell-based
[13] = rise of 4N DNA cells, HeLa – IC50, dose response (AID 1117351); type: functional, cell-based

Structure (SMILES): O=C(COc1ccc2ccccc2c1)Nc1ccncc1
- EC50 (cells [1]): > 29.9 µM (inactive)
- IC50 (Galanin receptor type 3): 1.77 µM (active)
- IC50 (cells [2]): 6.95 µM (active)

Structure (SMILES): COc1ccc(-c2cc3nc(NCc4ccc(N(C)C)cc4)n(C)c(=O)c3s2)cc1OC
- AC50 [3]: 39 µM (active)
- AC50 [4]: 3.28 µM (active)
- AC50 [5]: 31.3 µM (active)
- AC50 [6]: 36 µM (active)
- AC50 [7]: 45.2 µM (active)

Structure (SMILES): C[C@@H]1CN([C@H](C)CO)C(=O)CCCn2nncc2CO[C@H]1CN(C)C(=O)Nc1cccc2ccccc12
- AC50 [3]: 34.8 µM (active)
- AC50 [7]: > 52 µM (inactive)

Structure (SMILES): Nc1ccccc1-n1nc2ccc3ccccc3c2n1
- EC50 [8]: > 67.5 µM (inactive)
- IC50 [9]: > 67.5 µM (inactive)
- EC50 (cells [10]): > 67.5 µM (inactive)

Structure (SMILES): O=C(Cc1ccccn1)NCC[C@H]1CC[C@@H](NC(=O)Nc2ccc(C(F)(F)F)cc2)[C@@H](CO)O1
- AC50 [11]: 34.6 µM (active)

Structure (SMILES): C[C@@H]1CN([C@@H](C)CO)S(=O)(=O)c2ccc(-c3ccc(C#N)cc3)cc2O[C@H]1CN(C)C(=O)CN(C)C
- AC50 [11]: 26.5 µM (active)

Structure (SMILES): [O-][n+]1ccccc1SSc1cccc[n+]1[O-] [DIPYRITHIONE]
- IC50 [12]: > 10 µM (inactive)
- IC50 [13]: > 10 µM (inactive)
